From patent US20230263786A1, “MODULATION OF DRUG-DRUG INTERACTIONS OF VADADUSTAT” (Akebia Therapeutics, Inc., priority 2020, published 2023)

Key:
[1] = Phase I ferrous sulfate tablet interaction study;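 further: crossover in fasted human subjects with four-day washout between periods, plasma glucuronide metabolite pharmacokinetics, ratios computed as metabolite over parent for AUC and Cmax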
Method: (§1) Pharmacokinetics. […] The ratio of metabolite to parent was calculated for each glucuronide metabolite for AUC(0-t); and AUC(0-inf) and Cmax.
(§2) Comparative Bioavailability. […] Factors incorporated in the model included: Sequence, Subject (Sequence), Period, and Treatment.
(§3) Treatment of Subjects. […] All subjects are dosed on the same day for Day 1 of Confinement Period 1, and are crossed over to the alternate treatment and are dosed on the same day for Day 1 of Confinement Period 2. Both treatments are administered in a fasted state, and a four-day Washout Period separates each Confinement Period.

[2] = test system: hemoglobin concentration and red blood cell count; assay: Hemoglobin concentration and red blood cell count after repeated dosing; type: in vivo, rat; details: normal rats, repeated oral administration for 14 days
[3] = biological target: T1, CYP2B6 (Homo sapiens, UniProt P20813); assay: CYP2B6 inhibition in vitro; type: in vitro ADME
T1 sequence (P20813 1-491): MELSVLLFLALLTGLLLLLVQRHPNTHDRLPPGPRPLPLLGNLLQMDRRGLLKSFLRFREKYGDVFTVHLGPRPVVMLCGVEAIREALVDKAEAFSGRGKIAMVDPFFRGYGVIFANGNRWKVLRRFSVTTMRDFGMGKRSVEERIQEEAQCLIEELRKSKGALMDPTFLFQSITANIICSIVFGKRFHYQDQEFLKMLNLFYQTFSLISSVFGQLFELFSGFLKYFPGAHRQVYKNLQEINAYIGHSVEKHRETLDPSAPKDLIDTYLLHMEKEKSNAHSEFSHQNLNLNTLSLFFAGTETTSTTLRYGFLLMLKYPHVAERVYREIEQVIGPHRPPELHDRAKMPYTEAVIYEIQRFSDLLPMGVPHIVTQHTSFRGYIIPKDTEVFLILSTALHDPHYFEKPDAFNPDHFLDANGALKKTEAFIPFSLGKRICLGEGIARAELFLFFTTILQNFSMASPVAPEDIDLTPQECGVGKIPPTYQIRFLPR

[4] = Plasma protein binding, equilibrium dialysis; type: in vitro ADME; details: human, in vitro, read-out: human plasma protein binding rate
From the text: The human plasma protein binding rate of this drug was higher than 99% (in vitro, equilibrium dialysis).

[5] = biological target: T2, UGT1A1 (Homo sapiens, UniProt P22309); assay: UGT1A1 inhibition in vitro; type: in vitro ADME
T2 sequence (P22309 26-533): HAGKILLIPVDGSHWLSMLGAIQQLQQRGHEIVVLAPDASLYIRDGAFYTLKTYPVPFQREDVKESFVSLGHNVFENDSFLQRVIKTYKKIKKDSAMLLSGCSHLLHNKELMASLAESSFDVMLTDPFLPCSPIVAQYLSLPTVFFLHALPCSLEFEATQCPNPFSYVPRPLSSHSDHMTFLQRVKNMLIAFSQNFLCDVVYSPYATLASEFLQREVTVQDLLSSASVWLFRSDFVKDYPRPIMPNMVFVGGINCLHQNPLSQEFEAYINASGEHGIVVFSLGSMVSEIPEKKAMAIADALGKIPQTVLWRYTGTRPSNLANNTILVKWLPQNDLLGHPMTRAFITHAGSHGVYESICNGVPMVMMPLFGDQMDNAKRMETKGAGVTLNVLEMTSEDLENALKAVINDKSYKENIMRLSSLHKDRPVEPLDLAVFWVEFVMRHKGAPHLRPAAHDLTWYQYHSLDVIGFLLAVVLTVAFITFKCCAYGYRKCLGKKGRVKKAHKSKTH

[6] = Plasma pharmacokinetics, 150/300/600 mg once daily, first day; type: in vivo; details: male, human, healthy adult men
[7] = test system: erythropoietin; assay: Blood erythropoietin concentration increasing action; type: in vivo; details: normal rat, single oral administration
[8] = biological target: T3, CYP2C8 (Homo sapiens, UniProt P10632); assay: CYP2C8 inhibition in vitro; type: in vitro ADME
T3 sequence (P10632 1-490): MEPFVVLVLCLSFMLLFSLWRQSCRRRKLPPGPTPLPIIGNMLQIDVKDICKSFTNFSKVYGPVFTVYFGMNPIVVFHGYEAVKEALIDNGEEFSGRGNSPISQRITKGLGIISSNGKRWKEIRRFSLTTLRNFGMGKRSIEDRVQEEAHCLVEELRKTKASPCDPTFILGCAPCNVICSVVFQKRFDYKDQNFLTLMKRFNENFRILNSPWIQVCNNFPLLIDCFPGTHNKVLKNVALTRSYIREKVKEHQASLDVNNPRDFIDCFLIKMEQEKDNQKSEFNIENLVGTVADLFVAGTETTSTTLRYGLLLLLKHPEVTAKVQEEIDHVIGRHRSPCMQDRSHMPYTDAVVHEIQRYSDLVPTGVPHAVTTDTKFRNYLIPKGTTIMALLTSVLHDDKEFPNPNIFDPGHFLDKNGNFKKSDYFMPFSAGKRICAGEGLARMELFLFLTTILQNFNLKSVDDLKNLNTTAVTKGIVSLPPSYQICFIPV

[9] = test system: UGT1A1, UGT1A7, UGT1A8 and UGT1A9; assay: UGT isoforms generating O-glucuronide in vitro; type: in vitro ADME, human
[10] = [14C]-labeled Compound 1 650 mg metabolism and excretion; type: in vivo, human
From the text: Compound 1 is metabolized via UGT, mainly producing O-glucuronide conjugates.
The urinary excretion rate of this drug and acyl glucuronide is less than 1% of the total radioactivity.

[11] = test system: hemoglobin; assay: Phase III clinical trial in patients with hemodialysis anemia; type: in vivo, human
Method: The incidence of adverse reactions when this drug was administered up to 24 weeks was 8.3% (2/24 cases).

[12] = Phase I interaction study with statins and sulfasalazine: safety and tolerability; type: in vivo, human; details: taken alone or during treatment with rosuvastatin, pravastatin, atorvastatin, or simvastatin
Method: The pharmacokinetic (pK) parameters and safety of said drugs administered alone and in combination with Compound 1 were characterized.
Safety and Tolerability. Subject safety were evaluated throughout the study beginning on Day 1 (Baseline) until 30 days (±2 days) post last dose. The following safety assessments were performed: physical exam, 12-lead ECG (electrocardiogram), vital signs, clinical laboratory results, QuantiFERON®-TB Test, serology, and pregnancy. Adverse events (AE) were summarized.

[13] = clinical; details: male, human, plasma, oral, 450 mg
Method: as §1, §2, §3

[14] = Compound 1+Iron compared to Compound 1 alone

## O=C(O)CNC(=O)c1ncc(-c2cccc(Cl)c2)cc1O [Compound 1, {[5-(3-chlorophenyl)-3-hydroxypyridine-2-carbonyl]amino}acetic acid]
[1]; [14]
  lowering of Cmax: approximately 51%
  lowering of mean plasma AUC (AUC0-t and AUC0-inf): approximately 54%
[1]; single 450 mg dose with or without ferrous sulfate
  AEs, SAEs, deaths: no AEs, SAEs, or deaths
[2]
  hemoglobin concentration: increasing
  red blood cell count: increasing
[3]
  inhibitory effect on CYP2B6: inhibitory effect
[4]
  fraction unbound: < 0.01
[5]
  inhibitory effect on UGT1A1: inhibitory effect
[6]; 150 mg once daily
  AUC(0-t): 123 ± 30.5 µg·h/mL
  Cmax: 24200 ± 4990 ng/mL
  Tmax: 0.75 h
  half-life: 5.96 ± 0.914 h
[6]; 300 mg once daily
  AUC(0-t): 289 ± 75.3 µg·h/mL
  Cmax: 44300 ± 10800 ng/mL
  Tmax: 1.95 h
  half-life: 6.14 ± 0.763 h
[6]; 600 mg once daily
  AUC(0-t): 624 ± 205 µg·h/mL
  Cmax: 84800 ± 22300 ng/mL
  Tmax: 1.98 h
  half-life: 6.07 ± 0.419 h
[7]
  blood erythropoietin levels: elevated
[8]
  inhibitory effect on CYP2C8: inhibitory effect
[9]
  UGT isoforms involved in the generation of O-glucuronide: UGT1A1, UGT1A7, UGT1A8 and UGT1A9
[10]; single 650 mg [14C]-labeled, by 72 hours after administration
  total radioactivity administered found in urine: 58.9%
[10]; single oral 650 mg [14C]-labeled Compound 1, healthy adult males
  share of the total radioactivity (AUC0-∞) in plasma: 75%
[11]; administered up to 24 weeks
  incidence of adverse reactions: 8.3%
[11]; at 20 and 24 weeks, 150-600 mg once daily, adjusted average ± standard error
  Average hemoglobin level, After administration: 10.75 ± 0.19
[11]; hemodialysis anemia patients, baseline, mean ± standard deviation
  Average hemoglobin level, Before administration: 9.30 ± 0.67
[12]
  tolerability: well tolerated
[13]
  AUC(0-inf): 263 µg·h/mL
  AUC(0-t): 253 µg·h/mL
  Cmax: 45300 ng/mL
  Tmax: 3 h
